Measured values published in publication PMC9796306, “Multiple detection of both attractants and repellents by the dCache‐chemoreceptor SO_1056 of Shewanella oneidensis” (The Febs Journal, 2022).

Key:
[1] = biological target: T1, MBP-LBD1056 (ligand-binding domain of MCP SO_1056) (Shewanella oneidensis, UniProt Q8EHZ8); assay: isothermal titration calorimetry; conditions: read-out: apparent KD
T1 sequence (Q8EHZ8 29-278): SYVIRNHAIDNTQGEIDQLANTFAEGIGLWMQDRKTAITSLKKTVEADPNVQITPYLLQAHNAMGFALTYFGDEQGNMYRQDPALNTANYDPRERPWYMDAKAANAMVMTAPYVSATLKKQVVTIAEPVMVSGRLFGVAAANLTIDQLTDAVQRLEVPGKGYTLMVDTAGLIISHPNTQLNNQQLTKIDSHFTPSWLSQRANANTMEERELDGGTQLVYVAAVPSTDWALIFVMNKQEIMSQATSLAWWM

[2] = biological target: MBP-LBD1056 (ligand-binding domain of MCP SO_1056) (Shewanella oneidensis, UniProt Q8EHZ8, N170D)
Chain of MBP-LBD1056 (ligand-binding domain of MCP SO_1056) (Shewanella oneidensis, UniProt Q8EHZ8, N170D) (Q8EHZ8 entry or part of it N170D): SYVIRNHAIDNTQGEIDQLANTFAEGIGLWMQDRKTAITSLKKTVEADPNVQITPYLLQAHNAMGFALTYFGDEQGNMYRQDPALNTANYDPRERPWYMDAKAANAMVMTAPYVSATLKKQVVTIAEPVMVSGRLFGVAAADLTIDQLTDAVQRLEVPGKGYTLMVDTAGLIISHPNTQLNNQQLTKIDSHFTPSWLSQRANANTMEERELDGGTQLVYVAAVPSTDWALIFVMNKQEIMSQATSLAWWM

- Kd [1]: 3.4 ± 0.3 µM
- dTm at 1 mM [2]: 2.4 °C
Compound: O=C(O)C[C@H](O)C(=O)O [L-malate]
